Values of other authors as cited in patent US20050250805A1, “Pharmaceutical ointment formulations” (Glenmark Pharmaceuticals Limited, priority 2004, published 2005).

What was measured:
[1] = system: human subjects; conditions: 50 human subjects, total of 15 applications; according to the manufacturer's brochure
[2] = system: rabbit skin

CN1CCCC1=O [Pharmasolve, N-methyl-2-pyrrolidone]
Primary dermal irritation / sensitization in repeated insult patch test [1]: neither a primary dermal irritant nor a sensitizer | PII (skin irritation; practically nonirritating to rabbit skin) [2]: 0.5
